Experimental data published in patent EP0708091A1, “Indoloylguanidine derivatives” (SUMITOMO PHARMACEUTICALS COMPANY, LIMITED, priority 1994, dated 1996).
Counter-ions that a name gives are not always drawn.

molecular target: T1, Na⁺/H⁺ exchanger (Rattus norvegicus, UniProt P26431); assay: Inhibition of Na+/H+ exchanger activity in vitro (change in cell viability during acid loading); type: cell-based; details: minimum effective concentration (MEC), vascular smooth muscle cells isolated from the rat thoracic aorta
T1 construct: using the vascular smooth muscle cells isolated from the rat thoracic aorta; endogenous in cells; host or cells: primary vascular smooth muscle cells isolated from rat thoracic aorta
T1 sequence (P26431 whole entry): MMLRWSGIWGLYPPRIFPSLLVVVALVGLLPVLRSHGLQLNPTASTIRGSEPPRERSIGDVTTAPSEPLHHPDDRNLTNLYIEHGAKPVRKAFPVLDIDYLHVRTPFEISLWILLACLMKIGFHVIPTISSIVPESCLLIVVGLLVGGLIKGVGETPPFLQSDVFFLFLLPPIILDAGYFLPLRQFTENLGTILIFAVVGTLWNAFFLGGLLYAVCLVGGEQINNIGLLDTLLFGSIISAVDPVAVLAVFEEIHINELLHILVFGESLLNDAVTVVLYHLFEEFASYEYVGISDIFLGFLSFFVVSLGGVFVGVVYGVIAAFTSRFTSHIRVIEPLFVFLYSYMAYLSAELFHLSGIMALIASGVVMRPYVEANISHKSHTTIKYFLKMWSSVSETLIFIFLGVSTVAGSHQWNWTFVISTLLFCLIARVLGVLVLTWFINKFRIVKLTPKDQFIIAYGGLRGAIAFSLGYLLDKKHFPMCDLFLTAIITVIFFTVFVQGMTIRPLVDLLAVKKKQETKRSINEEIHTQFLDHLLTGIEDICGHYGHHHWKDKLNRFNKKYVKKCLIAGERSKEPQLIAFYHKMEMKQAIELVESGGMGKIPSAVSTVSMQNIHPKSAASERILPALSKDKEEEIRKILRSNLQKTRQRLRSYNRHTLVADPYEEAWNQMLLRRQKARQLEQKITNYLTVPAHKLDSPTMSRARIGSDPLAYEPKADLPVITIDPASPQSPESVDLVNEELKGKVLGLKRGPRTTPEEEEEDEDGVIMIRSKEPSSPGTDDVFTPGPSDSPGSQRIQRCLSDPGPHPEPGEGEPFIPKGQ
Procedure: Inhibition of Na+/H+ exchanger activity in vitro Method:
The experiment was performed by modifying the method of Mungre et al. described in Exp. Cell Res., 193, 236 (1991). That is, inhibition of the Na⁺/H⁺ exchanger activity was evaluated by the change in cell viability during acid loading, using the vascular smooth muscle cells isolated from the rat thoracic aorta.
The compounds of the present invention shown in Examples were evaluated by the minimum effective concentration (MEC) for the inhibition of the Na⁺/H⁺ exchanger activity.

Row | Compound | Inhibition of Na^+/H^+ Exchanger MEC
1 | Cn1c(C(=O)NC(=N)N)cc2c(Cl)cc(OCCN)cc21 [Example 175, 6-(2-Aminoethoxy)-4-chloro-l-methyl-2-indoloylguanidine dihydrochloride] | 0.03 µM
2 | NC(N)=NC(=O)c1nc(Cl)c(N2CCCCCC2)nc1N [5-Hexamethylene amiloride, reference compound] | 0.3 µM
3 | CN(C)c1nc(N)c(C(=O)N=C(N)N)nc1Cl [Dimethyl amiloride, reference compound] | 3.0 µM
4 | CN(C)CCCOc1ccc(Cl)c2cc(C(=O)NC(=N)N)n(C)c12 [Example 74, 4-Chloro-7-(3-dimethylaminopropoxy)-l-methyl-2-indoloylguanidine dihydrochloride] | 0.1 µM
5 | N=C(N)NC(=O)c1cc2ccccc2n1CCN1CCCC1 [Example 144, 1-[2-[(N-Pyrrolidinyl)ethyl]-2-indoloylguanidinedihydrochloride] | >10 µM
